The source of these data is publication PMC11284787, “Ligand-Directed Labeling of the Adenosine A1 Receptor in Living Cells” (Journal of Medicinal Chemistry, 2024).

Read-outs that look alike come from different tables or passages of the source.

In assay [1] the test system is T1, endogenously expressed A1AR in DRG neurons.
T1 construct: supporting the potential of the probe for selectively labeling endogenously expressed A1ARs; from tissue; host or cells: primary dorsal root ganglion neurons from adult male Sprague-Dawley rats
The experiment in a line: Live-cell confocal imaging of dorsal root ganglion (DRG) neurons. The assay is classed as cell-based, rat. From the text: Finally, we evaluated the utility of ligand-directed probe 11 to selectively label and visualize the localization and distribution of endogenously expressed A1AR in a physiologically relevant system. Studies have shown that activation of A1ARs expressed on peripheral nociceptive neurons produces analgesic effects,[14],[17],[71] thereby supporting the clinical potential of targeting the A1ARs for the treatment of neuropathic pain. Dorsal root ganglion (DRG) neurons are sensory cells involved in the transmission of pain and they are reported to express the A1AR[72]−[75] along with its cognate adenosine A2AAR[76]−[78] and A3AR[74],[79] receptor subtypes.
Figure 9 Live-cell confocal imaging of dorsal root ganglion (DRG) neurons labeled with SulfoCy5 by ligand-directed chemistry using probe 11 (250 nM). […] Left-hand side frames represent the SulfoCy5 channel, middle frames represent brightfield and right-hand side frames represent merged images from both channels. Images are representative of images acquired in four independent experiments. Scale bar: 10 μm. […]
plates (Nunc Lab-Tek, Thermo Fischer Scientific), pre-coated with Poly-D-Lysine, at 20,000 cells per well in DMEM/10% FCS. 24 h post seeding, cells were transiently transfected with human SNAP-A1. Transient transfections were carried out following manufacturer’s protocol: used FuGENE (Promega) HD at 3:1 ratio of reagent to cDNA with a total of 300 ng cDNA per well. Transfection solutions were made up in Gibco Opti-MEM (Thermo Fischer Scientific), incubated at RT for 5 min and added as 11 µL per well. Cells were incubated for additional 24 h at 37 OC, 5% CO2. Transient Transfection of NanoLuc-tagged human A 2AAR in HEK293T cell line was carried out as follows: 72 h prior to the experiment cells were removed from a confluent T75 flask and centrifuged. The pellet of cells was resuspended in 10 mL of fresh complete DMEM. […]

The next assay concerns the target T2, NL-rA1AR (Rattus norvegicus, UniProt P25099).
T2 construct: expressed in transfected cells
T2 sequence (P25099 1-326): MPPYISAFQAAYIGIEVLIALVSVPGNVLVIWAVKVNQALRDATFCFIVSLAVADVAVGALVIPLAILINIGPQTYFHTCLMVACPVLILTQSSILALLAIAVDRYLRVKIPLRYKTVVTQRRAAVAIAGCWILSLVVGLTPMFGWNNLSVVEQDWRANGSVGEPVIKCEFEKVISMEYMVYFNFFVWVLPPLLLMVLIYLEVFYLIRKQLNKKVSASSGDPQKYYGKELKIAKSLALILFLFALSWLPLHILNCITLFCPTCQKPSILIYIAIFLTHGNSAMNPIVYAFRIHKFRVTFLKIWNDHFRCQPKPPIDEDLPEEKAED
The experiment in a line: NanoBRET competition ligand-binding assay (CA200645 tracer), NL-rA1AR. (In general: In BRET a luciferase serves as donor, and the signal depends on an acceptor being close.)

For a further assay, the target named is T3, NL-hA2AAR (Homo sapiens, UniProt P29274).
T3 construct: expressed in transfected cells; host or cells: HEK293T, transient transfection (FuGENE)
The experiment in a line: NanoBRET competition ligand-binding assay (CA200645 tracer), NL-hA2AAR. As to conditions: CA200645 (25 nM) tracer, transient HEK293T, mean ± SEM; read-out: affinity values pKi, NL-hA2AAR (converted).

T3 sequence (P29274 whole entry): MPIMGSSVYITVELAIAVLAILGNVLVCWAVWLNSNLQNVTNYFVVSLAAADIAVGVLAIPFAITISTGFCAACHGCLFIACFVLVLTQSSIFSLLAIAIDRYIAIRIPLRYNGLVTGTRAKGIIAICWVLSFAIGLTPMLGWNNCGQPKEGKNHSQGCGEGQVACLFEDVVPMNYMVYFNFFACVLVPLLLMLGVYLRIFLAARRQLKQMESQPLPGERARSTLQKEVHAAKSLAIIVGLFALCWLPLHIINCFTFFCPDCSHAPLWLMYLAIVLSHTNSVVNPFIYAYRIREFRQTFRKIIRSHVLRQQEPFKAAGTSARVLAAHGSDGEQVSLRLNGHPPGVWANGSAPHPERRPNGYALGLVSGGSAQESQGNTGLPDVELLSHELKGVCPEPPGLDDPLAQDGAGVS

Turning to `CCCCn1c(=O)c2[nH]c(C34CCC(C(=O)NCCNC(=O)CCNC(=O)c5ccc(OC(=O)CCCCC[N+]6=C(/C=C/C=C/C=C7/N(C)c8ccc(S(=O)(=O)O)cc8C7(C)C)C(C)(C)c7cc(S(=O)(=O)[O-])ccc76)c(F)c5)(CC3)CC4)nc2n(CCCC)c1=O` [Compound 11, 1-(6-(4-((3-((2-(4-(1,3-Dibutyl-2,6-dioxo-2,3,6,7-tetrahydro-1H-purin-8-yl)bicyclo[2.2.2]octane-1-carboxamido)ethyl)amino)-3-oxopropyl)carbamoyl)-2-fluorophenoxy)-6-oxohexyl)-3,3-dimethyl-2-((1E,3E)-5-((E)-1,3,3-trimethyl-5-sulfoindolin-2-ylidene)penta-1,3-dien-1-yl)-3H-indol-1-ium-5-sulfonate], in assay [1] (250 nM, 2 h, adult Sprague-Dawley rat DRG), the “labeling of live DRG neurons” value was “SulfoCy5-labeling”. The “labeling of DRG neurons after pretreatment with ZM241385” value in assay [1] (10 μM A2AAR-selective antagonist ZM241385) is “did not prevent the SulfoCy5 labeling”. For the same compound, in assay [1] (10 μM DPCPX pretreatment), the “fluorescence in DRG neurons after pretreatment with DPCPX” value is given as “negligible fluorescence signal”.

On to `CCCCn1c(=O)c2[nH]c(C34CCC(C(=O)NCCNC(=O)CCNC(=O)c5ccc(OC(=O)CCC(=O)NCCOCCOCCNC(=O)O[C@H]6CC/C=C/CCC6)c(F)c5)(CC3)CC4)nc2n(CCCC)c1=O` [Compound 12, 4-((3-((2-(4-(1,3-Dibutyl-2,6-dioxo-2,3,6,7-tetrahydro-1H-purin-8-yl)bicyclo[2.2.2]octane-1-carboxamido)ethyl)amino)-3-oxopropyl)carbamoyl)-2-fluorophenyl (R,E)-1-(Cyclooct-4-en-1-yloxy)-1,12-dioxo-5,8-dioxa-2,11-diazapentadecan-15-oate], for which the Ki on NL-rA1AR (CA200645 (25 nM) tracer, HEK293T cells, mean ± SEM, read-out: affinity values pKi, NL-rA1AR (converted)) was 10.2 nM; on NL-rA1AR (supplementary CSV, read-out: AFFINITY (A1AR_rat) pKi (converted)), 8.32 nM; on NL-hA2AAR, 1380 nM.
